Consider seven substances from paper PMC4036671, “Switching and emergence of CTL epitopes in HIV-1 infection” (Retrovirology, 2014).

In assay [1] the target is HLA-A*24:02 (Homo sapiens, UniProt P04439, D101N/D140Y/D185E/E176V/E190D/F33S/G103R/G107R/I119L/I121M/I306V/K335N/L105A/L180Q/L300P/N151K/N90K/Q86E/Q94H/R106L/R138H/R89G/T104I/T345S/V100E/W191G/Y123F). Briefly: Peptide-HLA binding assay (T2-A24 stabilization assay). The following applies: T2-A24 cells, 10^-4 to 10^-9 M peptide, normalized MFI (to 10^-4 M Nef134-8), three independent experiments. The procedure:
Peptide binding to HLA-A*24:02 was assessed by using a T2-A24 stabilization assay as previously described. Briefly, after incubation for 16 hours at 26°C under 5% CO2, 2 × 10^5 T2-A24 cells were incubated with 10^-4 to 10^-9 M peptides for 1 h at 4°C. After keeping at 37°C under 5% CO2 for 3 hours, the cells were stained with biotinylated anti-human HLA-A9 monoclonal antibody (One Lambda), and streptavidin-APC conjugates (BD Pharmingen). The mean fluorescence intensity (MFI) was measured by FACSCalibur (Becton Dickinson). In each experiment, MFI of samples was normalized by the MFI of 10^-4 M control peptide, Nef134-8([…]). Three independent experiments were performed.

Assay [2] relates to Nef126-10-specific CTL clone I30-1. Briefly: Epitope recognition by CTL clone, peptide-pulsed 293FT-A24DRm-CY0 cells, IFN-γ ELISA. The class given is cell-based, human. The following applies: 293FT-A24DRm-CY0 cells pulsed with serially diluted peptide (3^2 to 3^-6 μM), co-culture 18 to 24 h, three independent experiments. The procedure: (§1) The cells were washed twice with R10, then cultured with 1 × 10^6 autologous PBMCs and 4 × 10^6 irradiated (3300 rad) allogeneic PBMCs in R10. After 4 days, IL-2 was added to 50 U/ml and the cells were cultured for 2–3 weeks in R10/50. Peptide-specific CD8^+ T cells were enriched by MACS separation (Miltenyi) using tetramers. The sorted cells were cloned by limiting dilution to 3 or 10 cells/well in 96-well round-bottom tissue culture plates, and cultured with 10^5 irradiated allogeneic PBMCs in R10/50 containing 5 μg/ml PHA-L.
(§2) CTL-recognition of the epitopes was assessed by serially diluted peptides. On day 0, 293FT-A24DRm-CY0 cells were seeded onto 96-well Flat-bottom transparent plate (BD Falcon) so that the cultures become confluent on day 2. On day 2, each peptide was pulsed with concentrations from 3^2 to 3^-6 μM to the wells and incubated at 37°C under 5% CO2 for 1 h. Then CTLs (5,000 ~ 10,000 cells) were added and co-cultured at 37°C under 5% CO2 for 18 to 24 h. After the incubation, supernatants were harvested, and IFN-γ concentrations were quantified by Human IFN-γ ELISA Set (BD Bioscience). In each experiment, the IFN-γ value of samples was normalized to that of the highest wild type peptide concentration (9 μM). For example, each IFN-γ value of I30-1 CTL clone was divided by the value of the well pulsed with 9 μM Nef126-10(wt) peptide. Each assay was performed in duplicate and three independent experiments were conducted.
For orientation: In an ELISA, binding on a coated surface is turned into a signal by an enzyme label.

Assay [3] deals with PBMCs. Briefly: Ex vivo IFN-γ ELISpot assay. The format is cell-based, human. The following applies: for correlation between magnitude of peptide-specific response and pVL: 24 IMSUT cohort patients harboring 133I/135F or 133T/135F, ex vivo IFN-γ ELISpot with frozen PBMCs, Spearman's rank correlation; for patients with peptide-specific response, plasma viruses 133T/135F: patients with 133T/135F viruses (n = 10). The procedure: (§3) The gamma interferon enzyme-linked immunospot (IFN-γ ELISpot) assay was performed using patients’ PBMCs as previously described with some modifications. In brief, 96-well plates (Millipore) were coated with anti-gamma-interferon (IFN-γ) MAb 1-D1k (Mabtech) overnight at 4°C. Peptides were added directly to the wells at a final concentration of 10^-5 M. 5 ~ 10 × 10^4 cells were added to each well with a final volume of 100 μl of R10. For negative controls, PBMCs were incubated with R10 alone without peptides. After incubation at 37°C under 5% CO2 overnight (16 to 18 h), the plates were washed six times with phosphate-buffered saline containing 0.01% tween-20 (PBST). Biotinylated anti-IFN-γ MAb 7-B6-1 (Mabtech) was added, and was incubated for 2 hours at 37°C under 5% CO2. After washing with PBST, streptavidin-alkaline phosphatase conjugate (Mabtech) was added and the plates were kept at room temperature for 45 min. After washing with PBST, IFN-γ-producing cells were detected as dark spots after 10- to 20-min color reaction with 5-bromo-4-chloro-3-indolylphosphate and nitroblue tetrazolium by using AP Conjugate Substrate Kit (Bio-Rad). Spots were counted by KS ELISPOT compact (Carl Zeiss) and expressed as spot-forming units (SFU) per 10^6 PBMCs after subtracting the SFU of the negative control. Values with >50 SFU, >3 × mean SFU of negative control and > mean SFU of negative control + 3 SD per 10^6 input cells were considered as a positive response.
(§4) Since more cells were required for the immune response screening (Figure 1B) and functional avidity assays (Figures 4B and 6C), PBMCs were stimulated with anti-human CD3 antibody and the T cells were expanded for 2 to 3 weeks in R10/50 (BD Pharmingen). Culture media was changed to R10 two days prior to the assay date. For ex vivo IFN-γ ELISpot assay (Figures 5B and 6B), PBMCs were cultured for 6 hours in R10 media.

The subject of assay [4] is expanded PBMCs. Nature of the assay: Longitudinal IFN-γ ELISpot assay with serially diluted peptides in one individual. The format is cell-based, human. The following applies: one patient; for peptide-specific IFN-γ ELISpot response, latter time point: 2003/3/20, plasma virus 133T/135F. The procedure:
as §3, with “In brief, 96-well plates (Millipore) were coated with anti-gamma-interferon (IFN-γ) MAb 1-D1k (Mabtech) overnight at 4°C.” left out, “Biotinylated anti-IFN-γ MAb 7-B6-1 (Mabtech) was added, and was incubated for 2 hours at 37°C under 5% CO2.” left out
as §4

Assay [5] has as its system expanded PBMCs from 46 HIV-1 patients. Nature of the assay: IFN-γ ELISpot assay using expanded PBMCs (screening of HLA-A*24:02-restricted epitopes). The format is cell-based, human. The following applies: for response rate: 46 HLA-A*24:02-positive HIV-1 patients, peptide 10^-5 M, overnight 16 to 18 h, positive >50 SFU per 10^6 cells; for peptide-specific response among patients with Nef135Y: eight patients with Nef135Y in plasma HIV RNA. The procedure: as §3, §4

Assay [6] deals with Nef134-10-specific CTL clone H27-9. Nature of the assay: Epitope recognition by CTL clone, peptide-pulsed 293FT-A24DRm-CY0 cells, IFN-γ ELISA. The following applies: 293FT-A24DRm-CY0 cells pulsed with serially diluted peptide (3^2 to 3^-6 μM), co-culture 18 to 24 h, three independent experiments. The format is cell-based, human. The procedure: as §1, §2
Assay [7] deals with expanded PBMCs. Nature of the assay: Functional avidity assay (IFN-γ ELISpot, limiting dilution of peptide). Particulars: nine individuals harboring 133T/135F, peptide 10^-5 to 10^-12 M, compared to Nef126-10(8T10F), Mann-Whitney U-test p < 0.05. The class given is cell-based, human. As to the method: Basically, the assay was performed using the same procedure with IFN-γ ELISpot assay as described above. PBMCs were cultured for 2 to 3 weeks in R10/50 after anti-human CD3 antibody (BD Pharmingen) stimulation, and culture media were changed from R10/50 to R10 two days before use. PBMCs were incubated with peptides at concentrations from 10^-5 to 10^-12 M, and SFU was calculated. The functional avidity to peptide dilutions was determined as a 50% of sigmoidal dose (SD50) SFU.
All data visualization and statistical analyses were performed using GraphPad Prism (GraphPad Software, La Jolla, CA). Student’s t-test and Mann–Whitney U-test were used to compare the antigen presentation and functional avidity between two groups, respectively. Spearman rank correlation was used to calculate the correlation between peptide-specific response and pVL. Dose at 50% response in sigmoidal dose–response curves (SD50) was calculated by drawing sigmoidal dose–response curves. Time to mutational escape, defined as the time elapsed between estimated date of HIV-1 infection and the first appearance of a full or partial amino acid change consistent with the specific escape mutation of interest, was calculated using Kaplan-Meier (survival) methods.

For the substance “Nef126-10(8T10F): Nef126-10 peptide with threonine at 8th position (I133T) and F at position 10 (NYTPGPGTRF)”, in assay [1], the “binding to HLA-A*24:02” value is listed as “did not significantly affect epitope-HLA binding”. In assay [2], the “IFN-γ production by CTL clone I30-1” value was “strong responses at very low peptide concentration”. Also, the “correlation between magnitude of peptide-specific response and pVL” value in assay [3] was “not”. Moreover, in assay [3] (ex vivo IFN-γ ELISpot, PBMCs, patients with 133I/135F viruses (n = 4)), the “patients with peptide-specific response, plasma viruses 133I/135F” value was 0 of 4. Further, the “patients with peptide-specific response, plasma viruses 133T/135F” value in assay [3] (ex vivo IFN-γ ELISpot, PBMCs) is recorded as “Nine out of 10”. Besides, the “peptide-specific IFN-γ ELISpot response, latter time point” value in assay [4] is “robust responses”.

In the case of “Nef134-10: published HLA-A*24:02-restricted HIV-1 nef CTL epitope peptide, 10 amino acids from Nef134 (HXB2 numbering) (RYPLTFGWCY; UniProt P04601 134-143, looked up, fragment)”, in assay [4], the “peptide-specific IFN-γ ELISpot response, latter time point” value is listed as “decreased but remained detectable”. In assay [5] (35 patients harboring Nef135F), the “number of responders among patients harboring Nef135F” value worked out at 28 and the “response rate among patients harboring Nef135F” value worked out at 80.0%. Moreover, in assay [5], the response rate amounted to 80.4% and the “peptide-specific response among patients with Nef135Y” value is “all of them”.

In the case of KYKLKHIVW [Gag28-9, reference compound], in assay [2], the “IFN-γ production by CTL clone I30-1” value was “Neither clone showed specificity”. Besides, the “IFN-γ production by CTL clone H27-9” value in assay [6] is “Neither clone showed specificity”. For the same substance, the response rate in assay [5] was found to be 40.0%.

Turning to Nef126-10(8I10F) (NYTPGPGIRF), the “binding to HLA-A*24:02” value in assay [1] is “dramatically improved its binding”. Also, the “IFN-γ production by CTL clone I30-1” value in assay [2] is “strong responses at very low peptide concentration”. The “correlation between magnitude of peptide-specific response and pVL” value in assay [3] was “inversely correlated with pVL”. Moreover, the “patients with peptide-specific response, plasma viruses 133T/135F” value in assay [3] (ex vivo IFN-γ ELISpot, PBMCs) was 7 of 10. Also, the “peptide-specific IFN-γ ELISpot response, latter time point” value in assay [4] is given as “robust responses”. In addition, the “functional avidity (SD50) of peptide-specific CTL responses” value in assay [7] was “significantly higher avidities”.

As to VPLDKDFRKY [reference compound], the “binding to HLA-A*24:02” value in assay [1] is reported as “might not bind to HLA-A*24:02”.

For “Nef126-10(wt): wild-type Nef126-10 peptide with Y at the C-terminus (NYTPGPGIRY)”, the “binding to HLA-A*24:02” value in assay [1] is “lowers the affinity”. In addition, the “IFN-γ production by CTL clone I30-1” value in assay [2] is given as “only at high concentrations”. For the same substance, in assay [4], the “peptide-specific IFN-γ ELISpot response, latter time point” value was “detected only at high peptide concentrations”.

In the case of “Nef126-10: published HLA-A*24:02-restricted HIV-1 nef CTL epitope peptide, 10 amino acids from Nef126 (HXB2 numbering) (NYTPGPGVRY; UniProt P04601 126-135, looked up, fragment)”, the “peptide-specific IFN-γ ELISpot response, earlier time point” value in assay [4] (2000/9/4, plasma virus wild type around Nef126-10/Nef134-10) is recorded as “no Nef126-10-specific responses were observed”. For the same substance, in assay [5] (35 patients harboring Nef135F), the “number of responders among patients harboring Nef135F” value is 23. For the same substance, in assay [5], the response rate was found to be 50.0% and the “peptide-specific response among patients with Nef135Y” value is listed as “none of the eight patients”.
